Test results published in ChEMBL document CHEMBL2203044, “Discovery of di-indolinone as a novel scaffold for protein tyrosine phosphatase 1B inhibitors” (Bioorg Med Chem Lett, 2012).

Experiments:
[1] = molecular target: T1, Tyrosine-protein phosphatase non-receptor type 1 (Homo sapiens, UniProt P18031); experiment: Inhibition of recombinant PTP1B using para-nitrophenylphosphate as substrate by high throughput screening assay
T1 sequence (P18031 whole entry): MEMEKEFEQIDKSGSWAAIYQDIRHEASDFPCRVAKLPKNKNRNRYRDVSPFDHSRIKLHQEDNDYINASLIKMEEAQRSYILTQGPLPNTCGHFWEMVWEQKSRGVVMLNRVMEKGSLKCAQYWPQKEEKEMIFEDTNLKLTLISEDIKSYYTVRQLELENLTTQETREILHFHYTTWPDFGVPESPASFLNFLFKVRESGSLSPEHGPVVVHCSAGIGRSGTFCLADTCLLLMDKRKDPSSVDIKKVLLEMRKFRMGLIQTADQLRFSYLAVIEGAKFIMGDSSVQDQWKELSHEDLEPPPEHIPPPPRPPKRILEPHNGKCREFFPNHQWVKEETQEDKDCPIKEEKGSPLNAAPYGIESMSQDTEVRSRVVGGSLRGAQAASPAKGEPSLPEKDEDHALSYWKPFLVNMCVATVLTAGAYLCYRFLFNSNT

[2] = molecular target: Tyrosine-protein phosphatase non-receptor type 6 (Homo sapiens, UniProt P29350); experiment: Inhibition of SHP-1
Sequence of Tyrosine-protein phosphatase non-receptor type 6 (P29350 whole entry): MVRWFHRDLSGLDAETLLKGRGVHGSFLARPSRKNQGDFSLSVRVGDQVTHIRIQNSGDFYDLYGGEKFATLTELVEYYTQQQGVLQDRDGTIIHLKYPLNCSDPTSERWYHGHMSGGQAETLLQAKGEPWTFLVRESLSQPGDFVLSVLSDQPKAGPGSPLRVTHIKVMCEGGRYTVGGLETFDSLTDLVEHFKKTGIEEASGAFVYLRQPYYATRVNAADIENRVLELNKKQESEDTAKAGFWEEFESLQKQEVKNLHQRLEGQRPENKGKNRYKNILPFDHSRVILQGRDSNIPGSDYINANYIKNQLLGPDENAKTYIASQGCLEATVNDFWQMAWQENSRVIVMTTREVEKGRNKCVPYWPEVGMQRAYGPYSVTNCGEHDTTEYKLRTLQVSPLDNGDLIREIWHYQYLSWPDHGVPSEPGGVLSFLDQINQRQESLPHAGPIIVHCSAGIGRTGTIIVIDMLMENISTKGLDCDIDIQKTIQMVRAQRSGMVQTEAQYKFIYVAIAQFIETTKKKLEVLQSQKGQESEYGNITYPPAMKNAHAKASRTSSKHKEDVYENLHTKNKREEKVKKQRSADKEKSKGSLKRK

[3] = molecular target: Receptor-type tyrosine-protein phosphatase F (Homo sapiens, UniProt P10586); experiment: Inhibition of LAR
Sequence of Receptor-type tyrosine-protein phosphatase F (P10586 whole entry): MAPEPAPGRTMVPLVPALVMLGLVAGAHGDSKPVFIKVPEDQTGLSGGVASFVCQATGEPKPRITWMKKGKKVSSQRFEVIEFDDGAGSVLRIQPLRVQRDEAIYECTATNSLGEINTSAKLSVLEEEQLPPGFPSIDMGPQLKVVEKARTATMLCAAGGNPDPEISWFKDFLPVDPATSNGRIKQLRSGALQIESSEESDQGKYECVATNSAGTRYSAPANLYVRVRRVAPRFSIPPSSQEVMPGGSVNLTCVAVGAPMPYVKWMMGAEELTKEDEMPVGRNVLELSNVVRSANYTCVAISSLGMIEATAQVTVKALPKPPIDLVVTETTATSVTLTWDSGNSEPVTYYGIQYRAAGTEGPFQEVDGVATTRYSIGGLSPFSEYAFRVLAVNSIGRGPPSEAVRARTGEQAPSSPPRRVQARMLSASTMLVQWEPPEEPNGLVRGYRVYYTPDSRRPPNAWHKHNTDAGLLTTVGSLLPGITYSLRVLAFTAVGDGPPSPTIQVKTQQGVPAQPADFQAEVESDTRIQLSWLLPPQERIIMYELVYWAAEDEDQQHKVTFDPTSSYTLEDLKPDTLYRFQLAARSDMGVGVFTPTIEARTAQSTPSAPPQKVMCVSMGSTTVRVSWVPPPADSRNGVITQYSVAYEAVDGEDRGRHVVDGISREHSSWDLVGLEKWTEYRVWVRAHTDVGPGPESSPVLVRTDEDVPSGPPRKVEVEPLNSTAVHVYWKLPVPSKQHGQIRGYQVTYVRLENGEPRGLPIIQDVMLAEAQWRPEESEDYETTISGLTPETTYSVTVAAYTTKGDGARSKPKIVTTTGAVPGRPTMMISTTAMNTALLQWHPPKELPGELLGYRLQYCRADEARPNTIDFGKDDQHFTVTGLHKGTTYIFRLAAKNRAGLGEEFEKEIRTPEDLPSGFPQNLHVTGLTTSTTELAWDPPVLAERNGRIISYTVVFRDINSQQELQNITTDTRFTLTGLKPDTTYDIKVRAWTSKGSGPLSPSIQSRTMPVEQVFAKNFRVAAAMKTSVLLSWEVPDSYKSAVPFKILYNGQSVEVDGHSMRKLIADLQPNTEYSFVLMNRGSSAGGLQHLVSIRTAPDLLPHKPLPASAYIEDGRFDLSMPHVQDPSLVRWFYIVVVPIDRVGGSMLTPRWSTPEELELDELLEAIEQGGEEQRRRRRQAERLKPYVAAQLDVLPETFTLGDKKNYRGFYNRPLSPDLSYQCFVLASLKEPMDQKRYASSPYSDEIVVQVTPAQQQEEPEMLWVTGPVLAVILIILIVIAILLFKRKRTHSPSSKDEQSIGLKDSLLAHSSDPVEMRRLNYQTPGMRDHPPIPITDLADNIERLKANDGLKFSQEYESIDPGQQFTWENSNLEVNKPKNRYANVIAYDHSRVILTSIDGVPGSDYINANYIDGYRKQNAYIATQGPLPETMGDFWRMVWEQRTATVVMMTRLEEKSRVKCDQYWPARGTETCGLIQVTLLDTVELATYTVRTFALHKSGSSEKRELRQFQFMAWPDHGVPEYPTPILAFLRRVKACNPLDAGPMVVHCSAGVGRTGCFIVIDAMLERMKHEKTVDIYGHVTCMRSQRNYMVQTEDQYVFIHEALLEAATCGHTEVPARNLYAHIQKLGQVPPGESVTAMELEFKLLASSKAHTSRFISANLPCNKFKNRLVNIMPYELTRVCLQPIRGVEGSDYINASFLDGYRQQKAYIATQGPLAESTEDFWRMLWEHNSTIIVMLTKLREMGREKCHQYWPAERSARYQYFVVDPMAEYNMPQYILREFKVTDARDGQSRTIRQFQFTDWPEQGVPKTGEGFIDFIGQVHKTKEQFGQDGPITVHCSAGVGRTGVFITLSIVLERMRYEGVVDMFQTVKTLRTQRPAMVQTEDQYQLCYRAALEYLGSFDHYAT

[4] = molecular target: T2, Tyrosine-protein phosphatase non-receptor type 2 (Homo sapiens, UniProt P17706); experiment: Inhibition of TCPTP
T2 sequence (P17706 whole entry): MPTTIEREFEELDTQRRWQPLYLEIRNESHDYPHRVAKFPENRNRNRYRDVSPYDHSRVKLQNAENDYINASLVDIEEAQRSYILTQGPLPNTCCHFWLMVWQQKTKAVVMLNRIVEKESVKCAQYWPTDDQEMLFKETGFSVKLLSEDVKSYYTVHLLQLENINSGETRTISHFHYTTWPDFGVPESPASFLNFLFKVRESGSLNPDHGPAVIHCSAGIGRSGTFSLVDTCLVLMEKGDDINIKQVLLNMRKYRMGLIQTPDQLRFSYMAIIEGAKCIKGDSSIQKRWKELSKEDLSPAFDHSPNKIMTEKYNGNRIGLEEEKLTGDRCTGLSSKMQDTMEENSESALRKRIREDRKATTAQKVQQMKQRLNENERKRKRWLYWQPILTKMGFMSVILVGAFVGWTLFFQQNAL

[5] = molecular target: T3, Tyrosine-protein phosphatase non-receptor type 1 (Homo sapiens) (UniProt P18031); experiment: Inhibition of recombinant PTP1B using para-nitrophenylphosphate as substrate at 20 ug/mL by high throughput screening assay
T3 sequence (whole entry): T1 sequence (P18031 whole entry)

| Structure (SMILES) | IC50 [1] [µM] | further results |
| --- | --- | --- |
| Cc1ccc2c(c1)C(=O)C(=O)N2Cc1ccc(/C=C2/C(=O)Nc3ccc(C)cc32)o1 | 5.7 |  |
| Cc1ccc2c(c1)/C(=C\c1ccc(CN3C(=O)C(=O)c4cc(Cl)ccc43)o1)C(=O)N2 | 3.37 |  |
| O=C1Nc2ccc(Br)cc2/C1=C\c1ccc(CN2C(=O)C(=O)c3ccccc32)o1 | 2.8 | IC50 [2]: > 100 µM; IC50 [3]: > 100 µM; IC50 [4]: 11.5 µM |
| Cc1ccc2c(c1)C(=O)C(=O)N2Cc1ccc(C=O)o1 | > 60 |  |
| O=C1Nc2ccc(Cl)cc2/C1=C\c1ccc(CN2C(=O)C(=O)c3ccccc32)o1 | 4.41 |  |
| O=C1Nc2ccc(Cl)cc2/C1=C\c1ccc(CN2C(=O)C(=O)c3cc(Cl)ccc32)o1 | 2.3 | IC50 [2]: > 100 µM; IC50 [3]: > 100 µM; IC50 [4]: 18.8 µM |
| COC(=O)[C@@H]1CCCCN1Cc1ccc(/C=C2/C(=O)N(Cc3ccc(C=O)o3)c3ccc(F)cc32)o1 |  | inhibition [5]: 55% |
| Cc1ccc2c(c1)/C(=C\c1ccc(CN3C(=O)C(=O)c4ccccc43)o1)C(=O)N2 | 9.82 |  |
| O=C1Nc2ccccc2/C1=C\c1ccc(CN2C(=O)C(=O)c3cc(Cl)ccc32)o1 | 4.59 |  |
| Cc1ccc2c(c1)C(=O)C(=O)N2Cc1ccc(/C=C2/C(=O)Nc3ccc(Cl)cc32)o1 | 3.46 |  |
| COC(=O)[C@@H]1CCCCN1Cc1ccc(/C=C2/C(=O)Nc3ccc(F)cc32)o1 |  | inhibition [5]: 14% |
| O=Cc1ccc(CN2C(=O)C(=O)c3cc(Cl)ccc32)o1 | > 60 |  |
| Cc1ccc2c(c1)C(=O)C(=O)N2Cc1ccc(/C=C2/C(=O)Nc3ccc(Br)cc32)o1 | 5.23 |  |
| O=C1Nc2ccccc2/C1=C\c1ccc(CN2C(=O)C(=O)c3ccccc32)o1 | 7.63 |  |
| O=C1Nc2ccc([N+](=O)[O-])cc2/C1=C\c1ccc(CN2C(=O)C(=O)c3ccccc32)o1 | 5.35 |  |
| COC(=O)[C@@H]1CCCCN1Cc1ccc(/C=C2/C(=O)N(Cc3ccc(/C=C4/C(=O)Nc5ccccc54)o3)c3ccc(F)cc32)o1 |  | inhibition [5]: 75% |
| O=Cc1ccc(CN2C(=O)C(=O)c3ccccc32)o1 | > 60 |  |
| Cc1ccc2c(c1)C(=O)C(=O)N2Cc1ccc(/C=C2/C(=O)Nc3ccccc32)o1 | 6.71 |  |
